This data set in a line: recombinant UMI read abundance after kanamycin selection (control-corrected) (log10(CPM+1)); higher = more efficient recombination; extreme values may be limits of the assay; sequences stand for … in AGTGCAGAGAAAATCGGCCAGTTTTCTCTGCCTGCAGTCCGCATGCCGTGGGACCCCTTGGGTTCTAACCTGTTGCCTAGATTTATGCAGCGGACTGCCTTTCTCCCAAAGTGATAAACCGG…AGGTTGGTTTCACT; site = the 11-nt donor. The procedure, abridged:
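Reported values are log10(CPM+1) from a pooled Escherichia coli screen of donor and donor-binding-loop pairs for the IS621 bridge recombinase. Selection used IPTG (0.07 mM) plus kanamycin, against unselected plating, each in two replicates. Recombinant UMIs were amplified across the donor–target junction, sequenced, converted to CPM, averaged over replicates and scaled by control-derived factors.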
In the case of “CCCTAGCCATGGACCGGTTTTCCCGGTAATCCGTATTTGCC (site CCCTAGACTGG)”, the “recombinant UMI read abundance (log10)” value is 0.

Turning to “CCCTAGCCATGGACCGGTTTTCCCGGTAATCCGTATTTGCC (site CCCTAGCCTAG)”, the “recombinant UMI read abundance (log10)” value came to 0.00741.

On to “CCCTAGCCATGGACCGGTTTTCCCGGTAATCCGTATTTGCC (site CCCTAGCCTCG)”, for which the “recombinant UMI read abundance (log10)” value was found to be 0.00555.

As for “CCCTAGCCATGGACCGGTTTTCCCGGTAATCCGTATTTGCC (site CCCTAGCCTGA)”, the “recombinant UMI read abundance (log10)” value was 0.

Regarding “CCCTAGCCATGGACCGGTTTTCCCGGTAATCCGTATTTGCC (site CCCTAGCCTGC)”, the “recombinant UMI read abundance (log10)” value was 0.

Consider “CCCTAGCCATGGACCGGTTTTCCCGGTAATCCGTATTTGCC (site CCCTAGCCTGG)”, for which the “recombinant UMI read abundance (log10)” value was 0.

For the sequence “CCCTAGCCATGGACCGGTTTTCCCGGTAATCCGTATTTGCC (site CCCTAGCCTGT)”, the “recombinant UMI read abundance (log10)” value came out at 0.

Consider “CCCTAGCCATGGACCGGTTTTCCCGGTAATCCGTATTTGCC (site CCCTAGCCTTG)”, for which the “recombinant UMI read abundance (log10)” value came out at 0.00543.

On to “CCCTAGCCATGGACCGGTTTTCCCGGTAATCCGTATTTGCC (site CCCTAGGCTGG)”, for which the “recombinant UMI read abundance (log10)” value is 0.

Regarding “CCCTAGCCATGGACCGGTTTTCCCGGTAATCCGTATTTGCC (site CCCTAGTCTGG)”, the “recombinant UMI read abundance (log10)” value is 1.15.

Take “CCCTAGCCATGGACCGGTTTTCCCGGTAATCCGTATTTGCC (site CCCTATCCTGG)”: the “recombinant UMI read abundance (log10)” value came to 0.

“CCCTAGCCATGGACCGGTTTTCCCGGTAATCCGTATTTGCC (site CCCTCGCCTGG)”: the “recombinant UMI read abundance (log10)” value came out at 0.

With “CCCTAGCCATGGACCGGTTTTCCCGGTAATCCGTATTTGCC (site CCCTGGCCTGG)”, the “recombinant UMI read abundance (log10)” value is 0.

Take “CCCTAGCCATGGACCGGTTTTCCCGGTAATCCGTATTTGCC (site CCCTTGCCTGG)”: the “recombinant UMI read abundance (log10)” value was 0.

For the sequence “CCCTAGCCATGGACCGGTTTTCCCGGTAATCCGTATTTGCC (site CCGTAGCCTGG)”, the “recombinant UMI read abundance (log10)” value is 0.

Regarding “CCCTAGCCATGGACCGGTTTTCCCGGTAATCCGTATTTGCC (site CCTTAGCCTGG)”, the “recombinant UMI read abundance (log10)” value came to 0.

Take “CCCTAGCCATGGACCGGTTTTCCCGGTAATCCGTATTTGCC (site CGCTAGCCTGG)”: the “recombinant UMI read abundance (log10)” value worked out at 0.

For the sequence “CCCTAGCCATGGACCGGTTTTCCCGGTAATCCGTATTTGCC (site CTCTAGCCTGG)”, the “recombinant UMI read abundance (log10)” value worked out at 0.

With “CCCTAGCCATGGACCGGTTTTCCCGGTAATCCGTATTTGCC (site GCCTAGCCTGG)”, the “recombinant UMI read abundance (log10)” value amounted to 0.

For “CCCTAGCCATGGACCGGTTTTCCCGGTAATCCGTATTTGCC (site TCCTAGCCTGG)”, the “recombinant UMI read abundance (log10)” value was 0.

“CCCTAGGCATGGACCGGTTTTCCCGGTAATCCGTATTTGCC (site CCCTAGACTGG)”: the “recombinant UMI read abundance (log10)” value amounted to 0.

For “CCCTAGGCATGGACCGGTTTTCCCGGTAATCCGTATTTGCC (site CCCTAGCCTGG)”, the “recombinant UMI read abundance (log10)” value was determined as 0.

Consider “CCCTAGGCATGGACCGGTTTTCCCGGTAATCCGTATTTGCC (site CCCTAGGCTGG)”, for which the “recombinant UMI read abundance (log10)” value came out at 0.

Turning to “CCCTAGGCATGGACCGGTTTTCCCGGTAATCCGTATTTGCC (site CCCTAGTCTGG)”, the “recombinant UMI read abundance (log10)” value is 0.

As for “CCCTAGTCATGGACCGGTTTTCCCGGTAATCCGTATTTGCC (site CCCTAGACTGG)”, the “recombinant UMI read abundance (log10)” value is 0.402.

In the case of “CCCTAGTCATGGACCGGTTTTCCCGGTAATCCGTATTTGCC (site CCCTAGCCTGG)”, the “recombinant UMI read abundance (log10)” value came to 0.

On to “CCCTAGTCATGGACCGGTTTTCCCGGTAATCCGTATTTGCC (site CCCTAGGCTGG)”, for which the “recombinant UMI read abundance (log10)” value was 0.

For the sequence “CCCTAGTCATGGACCGGTTTTCCCGGTAATCCGTATTTGCC (site CCCTAGTCTGG)”, the “recombinant UMI read abundance (log10)” value is 1.23.

In the case of “CCCTCAACATGGACCGGTTTTCCCGGTAATCCGTATTTGCA (site CCCTCAACTTG)”, the “recombinant UMI read abundance (log10)” value is 0.377.

For the sequence “CCCTCTACATGGACCGGTTTTCCCGGTAATCCGTATTTGCT (site CCCTCTACTAG)”, the “recombinant UMI read abundance (log10)” value turned out to be 1.58.

Take “CCCTGTCCATGGACCGGTTTTCCCGGTAATCCGTATTTGCA (site CCCAGTCCTTG)”: the “recombinant UMI read abundance (log10)” value worked out at 0.

Take “CCCTGTCCATGGACCGGTTTTCCCGGTAATCCGTATTTGCA (site CCCCGTCCTTG)”: the “recombinant UMI read abundance (log10)” value stood at 0.0428.

For the sequence “CCCTGTCCATGGACCGGTTTTCCCGGTAATCCGTATTTGCA (site CCCGGTCCTTG)”, the “recombinant UMI read abundance (log10)” value came to 0.

On to “CCCTGTCCATGGACCGGTTTTCCCGGTAATCCGTATTTGCA (site CCCTGTCCTTG)”, for which the “recombinant UMI read abundance (log10)” value was found to be 0.00678.

Regarding “CCCTTAGCATGGACCGGTTTTCCCGGTAATCCGTATTTGTG (site CCATTAGCTCA)”, the “recombinant UMI read abundance (log10)” value came to 0.0224.

As to “CCCTTAGCATGGACCGGTTTTCCCGGTAATCCGTATTTGTG (site CCCTTAGCTCA)”, the “recombinant UMI read abundance (log10)” value is 0.0472.

With “CCCTTAGCATGGACCGGTTTTCCCGGTAATCCGTATTTGTG (site CCGTTAGCTCA)”, the “recombinant UMI read abundance (log10)” value is 0.00331.

Turning to “CCCTTAGCATGGACCGGTTTTCCCGGTAATCCGTATTTGTG (site CCTTTAGCTCA)”, the “recombinant UMI read abundance (log10)” value was determined as 0.0232.

Regarding “CCCTTCTCATGGACCGGTTTTCCCGGTAATCCGTATTTGGG (site ACCTTCTCTCC)”, the “recombinant UMI read abundance (log10)” value worked out at 0.00611.

For “CCCTTCTCATGGACCGGTTTTCCCGGTAATCCGTATTTGGG (site CACTTCTCTCC)”, the “recombinant UMI read abundance (log10)” value turned out to be 0.00776.

Turning to “CCCTTCTCATGGACCGGTTTTCCCGGTAATCCGTATTTGGG (site CCATTCTCTCC)”, the “recombinant UMI read abundance (log10)” value was found to be 0.

Take “CCCTTCTCATGGACCGGTTTTCCCGGTAATCCGTATTTGGG (site CCCATCTCTCC)”: the “recombinant UMI read abundance (log10)” value amounted to 0.0128.

Turning to “CCCTTCTCATGGACCGGTTTTCCCGGTAATCCGTATTTGGG (site CCCCTCTCTCC)”, the “recombinant UMI read abundance (log10)” value is 0.0125.

Take “CCCTTCTCATGGACCGGTTTTCCCGGTAATCCGTATTTGGG (site CCCGTCTCTCC)”: the “recombinant UMI read abundance (log10)” value stood at 0.00385.

On to “CCCTTCTCATGGACCGGTTTTCCCGGTAATCCGTATTTGGG (site CCCTACTCTCC)”, for which the “recombinant UMI read abundance (log10)” value came out at 0.0199.

As to “CCCTTCTCATGGACCGGTTTTCCCGGTAATCCGTATTTGGG (site CCCTCCTCTCC)”, the “recombinant UMI read abundance (log10)” value stood at 0.0129.

Take “CCCTTCTCATGGACCGGTTTTCCCGGTAATCCGTATTTGGG (site CCCTGCTCTCC)”: the “recombinant UMI read abundance (log10)” value came to 0.0154.

With “CCCTTCTCATGGACCGGTTTTCCCGGTAATCCGTATTTGGG (site CCCTTATCTCC)”, the “recombinant UMI read abundance (log10)” value was 0.

Turning to “CCCTTCTCATGGACCGGTTTTCCCGGTAATCCGTATTTGGG (site CCCTTCACTCC)”, the “recombinant UMI read abundance (log10)” value amounted to 0.0149.

For the sequence “CCCTTCTCATGGACCGGTTTTCCCGGTAATCCGTATTTGGG (site CCCTTCCCTCC)”, the “recombinant UMI read abundance (log10)” value was determined as 0.00574.

With “CCCTTCTCATGGACCGGTTTTCCCGGTAATCCGTATTTGGG (site CCCTTCGCTCC)”, the “recombinant UMI read abundance (log10)” value came to 0.0128.

Consider “CCCTTCTCATGGACCGGTTTTCCCGGTAATCCGTATTTGGG (site CCCTTCTCTAC)”, for which the “recombinant UMI read abundance (log10)” value worked out at 0.

For “CCCTTCTCATGGACCGGTTTTCCCGGTAATCCGTATTTGGG (site CCCTTCTCTCA)”, the “recombinant UMI read abundance (log10)” value came to 0.0118.

On to “CCCTTCTCATGGACCGGTTTTCCCGGTAATCCGTATTTGGG (site CCCTTCTCTCC)”, for which the “recombinant UMI read abundance (log10)” value stood at 0.0281.

For the sequence “CCCTTCTCATGGACCGGTTTTCCCGGTAATCCGTATTTGGG (site CCCTTCTCTCG)”, the “recombinant UMI read abundance (log10)” value stood at 0.0129.

Consider “CCCTTCTCATGGACCGGTTTTCCCGGTAATCCGTATTTGGG (site CCCTTCTCTCT)”, for which the “recombinant UMI read abundance (log10)” value worked out at 0.0297.

In the case of “CCCTTCTCATGGACCGGTTTTCCCGGTAATCCGTATTTGGG (site CCCTTCTCTGC)”, the “recombinant UMI read abundance (log10)” value stood at 0.

Turning to “CCCTTCTCATGGACCGGTTTTCCCGGTAATCCGTATTTGGG (site CCCTTCTCTTC)”, the “recombinant UMI read abundance (log10)” value is 0.00791.

Regarding “CCCTTCTCATGGACCGGTTTTCCCGGTAATCCGTATTTGGG (site CCCTTGTCTCC)”, the “recombinant UMI read abundance (log10)” value amounted to 0.0418.

In the case of “CCCTTCTCATGGACCGGTTTTCCCGGTAATCCGTATTTGGG (site CCCTTTTCTCC)”, the “recombinant UMI read abundance (log10)” value turned out to be 0.00608.

Regarding “CCCTTCTCATGGACCGGTTTTCCCGGTAATCCGTATTTGGG (site CCGTTCTCTCC)”, the “recombinant UMI read abundance (log10)” value was found to be 0.

For “CCCTTCTCATGGACCGGTTTTCCCGGTAATCCGTATTTGGG (site CCTTTCTCTCC)”, the “recombinant UMI read abundance (log10)” value is 0.00766.

In the case of “CCCTTCTCATGGACCGGTTTTCCCGGTAATCCGTATTTGGG (site CGCTTCTCTCC)”, the “recombinant UMI read abundance (log10)” value was 0.

For “CCCTTCTCATGGACCGGTTTTCCCGGTAATCCGTATTTGGG (site CTCTTCTCTCC)”, the “recombinant UMI read abundance (log10)” value was 0.0147.

As to “CCCTTCTCATGGACCGGTTTTCCCGGTAATCCGTATTTGGG (site GCCTTCTCTCC)”, the “recombinant UMI read abundance (log10)” value was determined as 0.00558.

For the sequence “CCCTTCTCATGGACCGGTTTTCCCGGTAATCCGTATTTGGG (site TCCTTCTCTCC)”, the “recombinant UMI read abundance (log10)” value is 0.0111.

Turning to “CCCTTCTCATGGACCGGTTTTCCCGGTAATCCGTATTTGTG (site CCCTTCTCTCA)”, the “recombinant UMI read abundance (log10)” value was 0.583.

Consider “CCCTTCTCATGGACCGGTTTTCCCGGTAATCCGTATTTGTG (site CCCTTCTCTCC)”, for which the “recombinant UMI read abundance (log10)” value was 0.0231.

(Values after the supplement of paper PMC11208160.)
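Further: IS621 bridge recombinase in Escherichia coli cells against a fixed T5 target plasmid.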
